Entries after “also recorded” stand apart in the source; their conditions may differ.
Key:
Molt-4 = assay: CORA: Bn-O-glycans from media of Molt-4 cells, MALDI-TOF-MS; assay type: cell-based; conditions: Molt-4, 50 μM, 3 d
Experimental: (§1) Adherent (HEK293) and suspension (Molt-4) cells were cultured in complete media containing 50 μM Ac3GalNAc-α-Bn or vehicle (dimethyl sulfoxide (DMSO)) for 3 d. Putative Bn-O-glycans from the media were separated from larger material with a cutoff membrane, purified by C18 chromatography, permethylated and analyzed by MALDI-TOF-MS. Here as elsewhere, the permethylated nonsulfated and/or nonphosphorylated glycans were analyzed.
(§2) Compound was added to complete media, and media was collected after incubation with cells. Media was run over a 10-kDa centrifugal filter (Amicon Ultra 4, Millipore) for ˜30 min at 2,465 g, and flow-through was collected. Bn-O-glycans were subsequently purified from flow-through with a Sep-Pak 3-cc C18 cartridge (Waters) by gravity chromatography. The column was equilibrated by two washes with 2 ml of acetonitrile and four washes with 2 ml of 0.1% (vol/vol) trifluoracetic acid (TFA). Media was applied and the column was washed four times with 2 ml of 0.1% (vol/vol) TFA for each wash. […]
(§3) Dried samples were permethylated. […] Spotted: 0.5 μl of matrix (10 mg/ml […] (Sigma), 50% (vol/vol) acetonitrile, 0.1% (vol/vol) TFA) and 0.5 μl of sample on an Anchorchip target plate, air dried the spots and analyzed by MALDI-TOF-MS using an Ultraflex-II TOF-TOF system (Bruker Daltonics). […]

[1] = Stability of peracetylation in complete media; assay type: physicochemical
Experimental: (§4) To assess whether peracetylation of Bn-α-GalNAc enhances uptake and subsequent sensitivity, breast cancer cells (MDA-MB-231) were incubated with 0-250 μM Ac3GalNAc-α-Bn or Bn-α-GalNAc for 3 d. […] Further, peracetylation of Bn-α-GalNAc was stable in complete media for at least 3 d. Thus, peracetylation improved sensitivity, and at such low concentrations potential side effects should be limited, as explored below.

HEK293 = assay: CORA: Bn-O-glycans from media of HEK293 cells, MALDI-TOF-MS; assay type: cell-based; conditions: HEK293, 50 μM, 3 d
Experimental: as §1, §2, §3

[2] = tested on: breast cancer cells (MDA-MB-231); assay: CORA: Bn-O-glycans in media of MDA-MB-231 cells incubated with precursor, MALDI-TOF-MS; assay type: cell-based; conditions: MDA-MB-231, 0-250 μM; for lowest concentration at which Bn-O-glycans with the predicted sialylated core 2 structure were observed: 3 d
Experimental: as §4
To optimize conditions, MDA-MB-231 cells were cultured with 0-250 μM Ac3GalNAc-α-Bn for 2-4 d. […] Thus, CORA should be performed with low concentrations of Ac3GalNAc-α-Bn. For most subsequent studies, cells were incubated with 50 μM Ac3GalNAc-α-Bn for 3 d.
Ac3GalNAc-α-Bn or Bn-α-GalNAc was dissolved to 50 or 100 mM in DMSO and further diluted to 5-250 μM in complete media with 5% (vol/vol) FBS, except for HUVEC and human dermal fibroblast cultures, which were incubated in ATCC preformulated media. Media with compound was administered 1 d (most cells) or 2 d (HUVECs and human dermal fibroblasts) after seeding. Cells were then incubated for 2-4 d with compound before media was collected.
Compound was added to complete media, and media was collected after incubation with cells. Media was run over a 10-kDa centrifugal filter (Amicon Ultra 4, Millipore) for ˜30 min at 2,465 g, and flow-through was collected. Bn-O-glycans were subsequently purified from flow-through with a Sep-Pak 3-cc C18 cartridge (Waters) by gravity chromatography. The column was equilibrated by two washes with 2 ml of acetonitrile and four washes with 2 ml of 0.1% (vol/vol) trifluoracetic acid (TFA). Media was applied and the column was washed four times with 2 ml of 0.1% (vol/vol) TFA for each wash. Bn-O-glycans were then eluted with two 1.5-ml applications of 50% (vol/vol) acetonitrile, 0.1% (vol/vol) TFA. Eluent was divided into three fractions, concentrated by CentriVap to remove organic solvents, and lyophilized.
Dried samples were permethylated. NaOH-DMSO (200 μl) slurry was added followed by 200 μl of methyl iodide to samples. Samples were shaken for 30 min and then spun down at 5,000 g for 5 min. Supernatant was collected and chloroform extraction was performed to isolate permethylated glycans. Chloroform (500 μl) and 500 μl of water was added to supernatant. The samples were mixed and centrifuged at 5,000 g for 1 min. Two more washes were performed with 500 μl of water each before evaporating chloroform by CentriVap for 30 min. Bn-O-glycans were then resuspended in 25 or 50 μl of 50% (vol/vol) methanol. Spotted: 0.5 μl of matrix (10 mg/ml […] (Sigma), 50% (vol/vol) acetonitrile, 0.1% (vol/vol) TFA) and 0.5 μl of sample on an Anchorchip target plate, air dried the spots and analyzed by MALDI-TOF-MS using an Ultraflex-II TOF-TOF system (Bruker Daltonics). […]

cells = assay: CORA with the isomer Ac3GlcNAc-β-Bn: secretion of Bn-O-glycans; assay type: cell-based
Experimental: CORA is an approach for both amplifying and profiling the mucin-type O-glycome in living cells. […] For example, MS analyses of β-eliminated O-glycans from WEHI-3 cells have not identified sialyl-LeX on core 2 O-glycans, a critical component on PSGL-1 recognized by P-selectin, which binds WEHI-3 cells. […] Thus the novel structures identified are natural O-glycans, mostly present on glycoproteins at low abundance.
CORA was performed on cells with mutant or wild-type C1galt1c1 (Cosmc), a chaperone known to be essential for T-synthase activity. Only cells with functional Cosmc and active T-synthase secreted Bn-O-glycans when we administered Ac3GalNAc-α-Bn (FIG. 2A-D).
Compound was added to complete media, and media was collected after incubation with cells. Media was run over a 10-kDa centrifugal filter (Amicon Ultra 4, Millipore) for ˜30 min at 2,465 g, and flow-through was collected. Bn-O-glycans were subsequently purified from flow-through with a Sep-Pak 3-cc C18 cartridge (Waters) by gravity chromatography. […]
as §3

Compound	uptake and modification of the O-glycan precursor by glycosyltransferases (core 1- and core 2-based Bn-O-glycan compositions observed) (Molt-4)	peracetylation stable in complete media [1]	uptake and modification of the O-glycan precursor by glycosyltransferases (core 1- and core 2-based Bn-O-glycan compositions observed) (HEK293)	effect of increasing concentration on Bn-O-glycan abundance ([2]; 2-4 d)	lowest concentration at which Bn-O-glycans in culture media were seen ([2]; 2 d)	lowest concentration at which Bn-O-glycans with the predicted sialylated core 2 structure were observed [2]	Bn-O-glycans secreted by cells incubated with the compound (cells)
CC(=O)N[C@H]1[C@@H](OCc2ccccc2)O[C@H](COC(C)=O)[C@H](OC(C)=O)[C@@H]1OC(C)=O [Ac3GalNAc-α-Bn, peracetylated benzyl-α-N-acetylgalactosamine]	efficient uptake and modification	at least 3 d	efficient uptake and modification	shifted abundance from disialylated to monosialylated core 2	5 µM	25 µM	
CC(=O)N[C@H]1[C@H](OCc2ccccc2)O[C@H](COC(C)=O)[C@@H](OC(C)=O)[C@@H]1OC(C)=O [Ac3GlcNAc-β-Bn]							no glycans or a trisaccharide (Sia-Gal-GlcNAc-Bn) only; also recorded: no Bn-O-glycans or only the simple trisaccharide Neu5Ac-Gal-GlcNAc-Bn
CC(=O)N[C@H]1[C@@H](OCc2ccccc2)O[C@H](CO)[C@H](O)[C@@H]1O [Bn-α-GalNAc, reference compound]						250 µM	
